The text below walks through data of patent US20250282799A1, “SUBSTITUTED PYRIDO[4,3-d]PYRIMIDINES AS KRAS MODULATORS” (Alterome Therapeutics, Inc., priority 2023, published 2025).

The test system of this assay is KRAS G12V dependent lung adenocarcinoma cell line, NCI-H441. In words: Cellular pERK (Thr202/Tyr204) FRET/HTRF assay. Type of assay: cell-based. The conditions noted are these: Homo sapiens, NCI-H441, pERK HTRF, NCI-H441 cells (KRAS G12V). In a few lines: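 Read-out is a wash-free FRET sandwich immunoassay for endogenous ERK1/2 phosphorylated on Thr202/Tyr204. Signal was measured in NCI-H441 lung adenocarcinoma cells after 1 hr compound exposure at 37 °C. IC50 values come from fitted concentration-response curves.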
Background: In TR-FRET formats the signal depends on donor and acceptor labels being close together.
What is called IC50 is the point on the concentration scale where inhibition reaches its midpoint. A low value points to inhibition by little substance. As for `[2H]C([2H])(Oc1nc(N2CCOC[C@@H]3[C@@H](F)[C@@H]32)c2cnc(-c3cc(N)cc4cc(F)c(F)c(C#C)c34)c(F)c2n1)[C@@]12CCCN1C[C@H](F)C2` [Example 27, 5-Ethynyl-6,7-difluoro-4-(8-fluoro-4-((1R,7R,8R)-8-fluoro-5-oxa-2-azabicyclo[5.1.0]octan-2-yl)-2-(((2R,7aS)-2-fluorotetrahydro-1H-pyrrolizin-7a(5H)-yl)methoxy-d2)pyrido[4,3-d]pyrimidin-7-yl)naphthalen-2-amine], the IC50 was 50 to 500 nM. To `[2H]C([2H])(Oc1nc(N2CCOC[C@@H]3[C@H](F)[C@@H]32)c2cnc(-c3cc(N)cc4cc(F)c(F)c(C#C)c34)c(F)c2n1)[C@@]12CCCN1C[C@H](F)C2` [Example 29, 5-Ethynyl-6,7-difluoro-4-(8-fluoro-4-((1R,7R,8S)-8-fluoro-5-oxa-2-azabicyclo[5.1.0]octan-2-yl)-2-(((2R,7aS)-2-fluorotetrahydro-1H-pyrrolizin-7a(5H)-yl)methoxy-d2)pyrido[4,3-d]pyrimidin-7-yl)naphthalen-2-amine] belongs 50 to 500 nM.

`[2H]C([2H])(Oc1nc(N2CCOC[C@H]3[C@@H](F)[C@H]32)c2cnc(-c3cc(N)cc4cc(F)c(F)c(C#C)c34)c(F)c2n1)[C@@]12CCCN1C[C@H](F)C2` [Example 30, 5-Ethynyl-6,7-difluoro-4-(8-fluoro-4-((1S,7S,8R)-8-fluoro-5-oxa-2-azabicyclo[5.1.0]octan-2-yl)-2-(((2R,7aS)-2-fluorotetrahydro-1H-pyrrolizin-7a(5H)-yl)methoxy-d2)pyrido[4,3-d]pyrimidin-7-yl)naphthalen-2-amine]: the IC50 is < 50 nM.

For the compound `[2H]C([2H])(Oc1nc(N2CCO[C@@H]3C[C@@H]32)c2cnc(-c3cc(N)cc4cc(F)c(F)c(C#C)c34)c(F)c2n1)[C@@]12CCCN1C[C@H](F)C2` [Example 31, 4-(4-((1R,6S)-2-Oxa-5-azabicyclo[4.1.0]heptan-5-yl)-8-fluoro-2-(((2R,7aS)-2-fluorotetrahydro-1H-pyrrolizin-7a(5H)-yl)methoxy-d2)pyrido[4,3-d]pyrimidin-7-yl)-5-ethynyl-6,7-difluoronaphthalen-2-amine], the IC50 was in the range of 50 to 500 nM. Next, `[2H]C([2H])(Oc1nc(N2CCO[C@H]3C[C@H]32)c2cnc(-c3cc(N)cc4cc(F)c(F)c(C#C)c34)c(F)c2n1)[C@@]12CCCN1C[C@H](F)C2` [Example 32, 4-(4-((1S,6R)-2-Oxa-5-azabicyclo[4.1.0]heptan-5-yl)-8-fluoro-2-(((2R,7aS)-2-fluorotetrahydro-1H-pyrrolizin-7a(5H)-yl)methoxy-d2)pyrido[4,3-d]pyrimidin-7-yl)-5-ethynyl-6,7-difluoronaphthalen-2-amine]: 50 to 500 nM. The compound `[2H]C([2H])(Oc1nc(N2CCCO[C@@H]3C[C@@H]32)c2c(OC)nc(-c3cc(N)cc4cc(F)c(F)c(C#C)c34)c(F)c2n1)[C@@]12CCCN1C[C@H](F)C2` [Example 33, 4-(4-((1R,7S)-2-Oxa-6-azabicyclo[5.1.0]octan-6-yl)-8-fluoro-2-(((2R,7aS)-2-fluorotetrahydro-1H-pyrrolizin-7a(5H)-yl)methoxy-d2)-5-methoxypyrido[4,3-d]pyrimidin-7-yl)-5-ethynyl-6,7-difluoronaphthalen-2-amine] yielded an IC50 of 50 to 500 nM.

In the case of `[2H]C([2H])(Oc1nc(N2CCCO[C@H]3C[C@H]32)c2c(OC)nc(-c3cc(N)cc4cc(F)c(F)c(C#C)c34)c(F)c2n1)[C@@]12CCCN1C[C@H](F)C2` [Example 34, 4-(4-((1S,7R)-2-Oxa-6-azabicyclo[5.1.0]octan-6-yl)-8-fluoro-2-(((2R,7aS)-2-fluorotetrahydro-1H-pyrrolizin-7a(5H)-yl)methoxy-d2)-5-methoxypyrido[4,3-d]pyrimidin-7-yl)-5-ethynyl-6,7-difluoronaphthalen-2-amine], the IC50 is < 50 nM.

For `[2H]C([2H])(Oc1nc(N2CCCO[C@@H]3C[C@@H]32)c2c(OC)nc(-c3cc(O)cc4ccc(F)c(C#C)c34)c(F)c2n1)[C@@]12CCCN1C[C@H](F)C2` [Example 35, 4-(4-((1R,7S)-2-Oxa-6-azabicyclo[5.1.0]octan-6-yl)-8-fluoro-2-(((2R,7aS)-2-fluorotetrahydro-1H-pyrrolizin-7a(5H)-yl)methoxy-d2)-5-methoxypyrido[4,3-d]pyrimidin-7-yl)-5-ethynyl-6-fluoronaphthalen-2-ol], the IC50 fell in the range of 50 to 500 nM. To `[2H]C([2H])(Oc1nc(N2CCCO[C@H]3C[C@H]32)c2c(OC)nc(-c3cc(O)cc4ccc(F)c(C#C)c34)c(F)c2n1)[C@@]12CCCN1C[C@H](F)C2` [Example 36, 4-(4-((1S,7R)-2-Oxa-6-azabicyclo[5.1.0]octan-6-yl)-8-fluoro-2-(((2R,7aS)-2-fluorotetrahydro-1H-pyrrolizin-7a(5H)-yl)methoxy-d2)-5-methoxypyrido[4,3-d]pyrimidin-7-yl)-5-ethynyl-6-fluoronaphthalen-2-ol] belongs < 50 nM; to `[2H]C([2H])(Oc1nc(N2CCO[C@@H]3[C@@H](F)[C@@H]32)c2cnc(-c3cc(N)cc4cc(F)c(F)c(C#C)c34)c(F)c2n1)[C@@]12CCCN1C[C@H](F)C2` [Example 37, 5-Ethynyl-6,7-difluoro-4-(8-fluoro-4-((1S,6R,7S)-7-fluoro-2-oxa-5-azabicyclo[4.1.0]heptan-5-yl)-2-(((2R,7aS)-2-fluorotetrahydro-1H-pyrrolizin-7a(5H)-yl)methoxy-d2)pyrido[4,3-d]pyrimidin-7-yl)naphthalen-2-amine], 50 to 500 nM. Next, `[2H]C([2H])(Oc1nc(N2CCO[C@H]3[C@H](F)[C@H]32)c2cnc(-c3cc(N)cc4cc(F)c(F)c(C#C)c34)c(F)c2n1)[C@@]12CCCN1C[C@H](F)C2` [Example 38, 5-Ethynyl-6,7-difluoro-4-(8-fluoro-4-((1R,6S,7R)-7-fluoro-2-oxa-5-azabicyclo[4.1.0]heptan-5-yl)-2-(((2R,7aS)-2-fluorotetrahydro-1H-pyrrolizin-7a(5H)-yl)methoxy-d2)pyrido[4,3-d]pyrimidin-7-yl)naphthalen-2-amine]: < 50 nM; `[2H]C([2H])(Oc1nc(N2CCCO[C@H]3C[C@H]32)c2cnc(-c3ccc(F)c4sc(N)c(C#N)c34)c(F)c2n1)[C@@]12CCCN1C[C@H](F)C2` [Example 39, 4-(4-((1S,7R)-2-Oxa-6-azabicyclo[5.1.0]octan-6-yl)-8-fluoro-2-(((2R,7aS)-2-fluorotetrahydro-1H-pyrrolizin-7a(5H)-yl)methoxy-d2)pyrido[4,3-d]pyrimidin-7-yl)-2-amino-7-fluorobenzo[b]thiophene-3-carbonitrile]: 50 to 500 nM; `[2H]C([2H])(Oc1nc(N2CCCO[C@@H]3C[C@@H]32)c2cnc(-c3ccc(F)c4sc(N)c(C#N)c34)c(F)c2n1)[C@@]12CCCN1C[C@H](F)C2` [Example 40, 4-(4-((1R,7S)-2-Oxa-6-azabicyclo[5.1.0]octan-6-yl)-8-fluoro-2-(((2R,7aS)-2-fluorotetrahydro-1H-pyrrolizin-7a(5H)-yl)methoxy-d2)pyrido[4,3-d]pyrimidin-7-yl)-2-amino-7-fluorobenzo[b]thiophene-3-carbonitrile]: 500 to 10000 nM. Regarding `[2H]C([2H])([2H])Oc1c(F)c(F)c(F)c2cc(N)cc(-c3ncc4c(N5CCOC[C@H]6[C@H](F)[C@H]65)nc(OC([2H])([2H])[C@@]56CCCN5C[C@H](F)C6)nc4c3F)c12` [Example 41, 6,7,8-Trifluoro-4-(8-fluoro-4-((1S,7S,8S)-8-fluoro-5-oxa-2-azabicyclo[5.1.0]octan-2-yl)-2-(((2R,7aS)-2-fluorotetrahydro-1H-pyrrolizin-7a(5H)-yl)methoxy-d2)pyrido[4,3-d]pyrimidin-7-yl)-5-(methoxy-d3)naphthalen-2-amine], the IC50 was < 50 nM. For `[2H]C([2H])(Oc1nc(N2CCOC[C@H]3[C@H](F)[C@H]32)c2cnc(-c3cccc4cc(F)c(F)c(C#C)c34)c(F)c2n1)[C@@]12CCCN1C[C@H](F)C2` [Example 42, (1S,7S,8S)-2-(7-(8-Ethynyl-6,7-difluoronaphthalen-1-yl)-8-fluoro-2-(((2R,7aS)-2-fluorotetrahydro-1H-pyrrolizin-7a(5H)-yl)methoxy-d2)pyrido[4,3-d]pyrimidin-4-yl)-8-fluoro-5-oxa-2-azabicyclo[5.1.0]octane], the IC50 is < 50 nM. Consider `[2H]C([2H])([2H])Oc1c(F)ccc2cccc(-c3ncc4c(N5CCOC[C@H]6[C@H](F)[C@H]65)nc(OC([2H])([2H])[C@@]56CCCN5C[C@H](F)C6)nc4c3F)c12` [Example 43, (1S,7S,8S)-8-Fluoro-2-(8-fluoro-7-(7-fluoro-8-(methoxy-d3)naphthalen-1-yl)-2-(((2R,7aS)-2-fluorotetrahydro-1H-pyrrolizin-7a(5H)-yl)methoxy-d2)pyrido[4,3-d]pyrimidin-4-yl)-5-oxa-2-azabicyclo[5.1.0]octane], for which the IC50 was < 50 nM. Regarding `[2H]C([2H])([2H])Oc1c(F)c(F)cc2cc(N)cc(-c3ncc4c(N5CCOC[C@H]6[C@H](F)[C@H]65)nc(OC([2H])([2H])[C@@]56CCCN5C[C@H](F)C6)nc4c3F)c12` [Example 44, 6,7-Difluoro-4-(8-fluoro-4-((1S,7S,8S)-8-fluoro-5-oxa-2-azabicyclo[5.1.0]octan-2-yl)-2-(((2R,7aS)-2-fluorotetrahydro-1H-pyrrolizin-7a(5H)-yl)methoxy-d2)pyrido[4,3-d]pyrimidin-7-yl)-5-(methoxy-d3)naphthalen-2-amine], the IC50 is < 50 nM.

Take `[2H]C([2H])(Oc1nc(N2CCOC[C@H]3[C@H](F)[C@H]32)c2cnc(-c3cccc4ccc(F)c(C#C)c34)c(F)c2n1)[C@@]12CCCN1C[C@H](F)C2` [Example 45, (1S,7S,8S)-2-(7-(8-Ethynyl-7-fluoronaphthalen-1-yl)-8-fluoro-2-(((2R,7aS)-2-fluorotetrahydro-1H-pyrrolizin-7a(5H)-yl)methoxy-d2)pyrido[4,3-d]pyrimidin-4-yl)-8-fluoro-5-oxa-2-azabicyclo[5.1.0]octane]: the IC50 is < 50 nM.
